Laboratory results reported in publication PMC6701825, “Antiproliferative and Antimigratory Effects of a Novel YAP–TEAD Interaction Inhibitor Identified Using in Silico Molecular Docking” (Journal of Medicinal Chemistry, 2019).

Assays:
RaVSMCs = experiment: EdU proliferation assay in RaVSMCs; assay type: cell-based, rat; settings: 18 h then 6 h 10 μM EdU
Method: Cell proliferation was measured using the Click-iT EdU 488 assay (Sigma-Aldrich). Briefly, the cells were treated with indicated concentrations of compounds for 24 h with the last 4 h being in the presence of 10 μM EdU. The cells were fixed in 4% formaldehyde and stained for EdU incorporation, following the kit’s standard protocol. The cells were counterstained with Hoechst 33342 nucleic acid for 20 min. Fluorescent images of at least three fields of view per well were counted using ImageJ software. Real-time analysis of cell migration was performed using an IncuCyte ZOOM live cell imaging system (Essen BioScience) according to the manufacturer’s instructions. Briefly, the cells were seeded (1.2 × 10^4 cells/well for HeLa cells, 1.5 × 10^4 cells/well for RaVSMCs, and 1 × 10^4 cells/well) into ImageLock 96-well plates. After 36 h, the cells were pretreated overnight with indicated concentrations of compounds. The wells were scratched using a WoundMaker tool, and the media were replaced containing test compounds. Phase contrast images of cell migration into the wounded area were acquired hourly for 24 h. Relative wound confluence was calculated using the Cell Migration Image analysis module of the IncuCyte ZOOM software.

TEAD4 = target: T1, TEAD4 (Homo sapiens, UniProt Q15561); experiment: GAL4-TEAD4 fusion / 5xGAL4-secNLUC reporter in HeLa cells; assay type: cell-based; settings: 100 μM, 6 h
T1 construct: #18881 (FLAG-YAP); host or cells: HeLa
T1 sequence (Q15561 whole entry, the tested form may be a part): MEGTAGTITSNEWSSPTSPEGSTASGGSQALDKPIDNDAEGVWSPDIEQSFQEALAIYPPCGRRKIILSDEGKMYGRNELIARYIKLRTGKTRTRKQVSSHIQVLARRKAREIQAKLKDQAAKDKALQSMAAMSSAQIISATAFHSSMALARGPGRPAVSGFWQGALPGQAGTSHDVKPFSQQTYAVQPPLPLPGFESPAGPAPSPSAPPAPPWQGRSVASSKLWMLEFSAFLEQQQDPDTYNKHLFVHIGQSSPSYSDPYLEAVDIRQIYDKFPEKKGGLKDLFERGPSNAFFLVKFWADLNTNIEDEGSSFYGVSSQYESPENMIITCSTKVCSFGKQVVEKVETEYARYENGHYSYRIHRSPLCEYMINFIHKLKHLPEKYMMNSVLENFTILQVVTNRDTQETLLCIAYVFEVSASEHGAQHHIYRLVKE
Text: (§1) TEAD proteins (TEAD1–4) display a high degree of sequence conservation in residues that create the hydrophobic pocket that is essential for YAP binding.[51] YAP proteins also display a high degree of conservation in residues that interact with this pocket.[51] We therefore tested whether CPD3.1 was able to inhibit YAP-induced activity of TEAD1, TEAD2, TEAD3, and TEAD4. To quantify the effect of CPD3.1 on the activity of each individual TEAD paralog, while excluding interference from endogenously expressed TEAD1–4 proteins, we expressed each TEAD paralog (TEAD1–4) fused to the yeast GAL4 DNA-binding domain. Cells were transfected with the GAL4–TEAD expression vector together with a secreted nanoluciferase reporter gene vector under control of a promoter containing five GAL4 DNA-binding elements. This system allows us to study the effect of CPD3.1 on the activity of each individual TEAD protein in isolation, without interference from endogenously expressed transcription factors. In addition, the cells were co-transfected with a YAP expression vector to activate the GAL4–TEAD fusion-dependent transcription (see Supplement Figure 9). Basal activities of TEAD1, TEAD2, TEAD3, and TEAD4 were inhibited by CPD3.1 (Figure 7A–D). […]
Figure 7 Compound 3.1 inhibits TEAD1, TEAD2, TEAD3, and TEAD4 activities. […] Secreted nano-luciferase activity was quantified in the conditioned media. […]

[1] = tested on: TEAD-independent GAL4 reporter vector; experiment: TEAD-independent reporter vector basal activity (Supplement Figure 10A); assay type: cell-based; settings: 6 hours
Text: as §1, with “7A–D). This likely reflects the inhibition of TEAD activity driven by endogenous expression of YAP.” for “7A–D).”

Row | Structure (SMILES) | cell proliferation (EdU incorporation) (RaVSMCs) | basal activity of GAL4-TEAD4 (TEAD4) | YAP-stimulated activity of GAL4-TEAD4 (TEAD4; YAP overexpression) | basal activity of a TEAD-independent GAL4 reporter vector [1]
1 | Cc1ccc2c(c1)c1c3n2CCN(CC(O)CN2CCN(C(=O)c4ccco4)CC2)C3CCC1 (stereo not shown) [CPD3] | dose-dependently inhibited cell proliferation | – | – | –
2 | Cc1ccc2c(c1)c1c3n2CCNC3CCC1 (stereo not shown) [CPD3.1] | – | inhibited | significantly inhibited | did not inhibit the basal activity
